Experimental data published in patent US10342786B2, “P38 kinase inhibitors reduce DUX4 and downstream gene expression for the treatment of FSHD” (Fulcrum Therapeutics, Inc., priority 2017, dated 2019).

System: DUX4-fl mRNA
Assay: DUX4 / DUX4-fl mRNA expression by qPCR in FSHD myotubes
Format: cell-based, human
Method: In a 6 well plate, 450 μL Buffer RLT Plus was added. Lysate was homogenized by transfer the lysate to a gDNA Eliminator spin column placed in a 2 mL collection tube (supplied), centrifuged for 30 s at ≥8000×g (≥10,000 rpm) and discarded column while saving the flow-through. Then 250 μL of Ethanol (35% final) was added to the flow-through, and mixed well by pipetting, not centrifuged. Then samples were transferred, including any precipitate that may have formed, to an RNeasy MinElute spin column placed in a 2 mL collection tube (supplied). Then centrifuged for 15 s at ≥8000×g. Flow-through was discarded or collected for Protein precipitation. 700 μL Buffer RW1 to the RNeasy MinElute spin column was added then centrifuge for 15 s at ≥8000×g. and discard the flow-through. DNAse treatment was performed by gently mixing 10 μL DNAseI with 70 μL of Buffer RDD and added directly to the column, incubated at room temperature for 20 min. Then, 700 μL Buffer RW1 (per manufactures specification) to the RNeasy MinElute spin column, centrifuged for 15 s at >8000×g. and the flow-through discarded. 500 μL Buffer RPE was added to the RNeasy MinElute spin column centrifuged for 15 s at ≥8000×g and discarded the flow-through. 500 μL of 80% ethanol was added to the RNeasy MinElute spin column, centrifuged for 2 min at ≥8000×g to wash the spin column membrane and the collection tube was discarded with the flow-through. The RNeasy MinElute spin column was placed in a new 2 mL collection tube (supplied) centrifuged at full speed for 5 min to dry the membrane and the collection tube was discarded with the flow through. RNeasy MinElute spin column was placed in a new 1.5 mL collection tube (supplied). 14 μL RNase-free water was added directly to the center of the spin column membrane, and centrifuged for 1 min at full speed to elute the RNA. You should end up with about 12 μL of eluted RNA.
cDNA preparation. […] 10 seconds then read plate on QuantStudio7 as per manufactures instruction (Thermo). […]

Row | Compound | DUX4-fl mRNA levels normalized to POLR2A mRNA (10, 100, and 1000 nM, FSHD myotubes, compared to DMSO) | DUX4 expression (1 μM ASO, FSHD myotubes vs DMSO) | DUX4 expression (different dilutions of the ASO, FSHD myotubes)
1 | Cn1c(=O)c(Oc2ccc(F)cc2F)cc2cnc(NC(CCO)CCO)nc21 [Pamapimod, 6-(2,4-difluorophenoxy)-2-((1,5-dihydroxypentan-3-yl)amino)-8-methylpyrido[2,3-d]pyrimidin-7(8H)-one] | dose-dependently reduced | – | –
2 | FTX-2: DUX4 sequence-directed antisense oligonucleotide purchased from Exiqon, CAGCGTCGGAAGGTGG (SEQ ID NO: 1) (listed as DNA, chemistry not given here) | – | reduced amounts | dose dependent reduction
